From patent US9376376B2, “Substitute diphenylamine compounds use thereof as antitumor agents” (SINOCHEM CORPORATION, priority 2012, dated 2016)

Legend:
[1] = test system: lung cancer A549 cell; test: In vitro cell inhibition assay (MTT method), A549; assay type: cell-based, human; conditions: 48 h incubation
Procedure: (§1) The human cancer cell lines used for this assay were lung cancer A549 and leukemia HL-60.
(§2) The A549 or HL-60 cells were picked up from cell incubator, after washed for twice using PBS, cells were digested by 0.25% trypsin, and then add medium to terminate the digestion. After cells were collected using centrifuge and re-suspended, count cells under inverted microscope and add medium to make a density was 5×10^4 cells/mL. After 100 μL aliquots were added to each well of 96-well microtiter plates, cells were cultured in 5% incubator for overnight at 37° C., then the different concentration compounds were added to each well. After incubation for 48 h, MTT solution was added to each well and plates were then incubated for 4 h. The MTT tetrazolium was reduced to formazan by living cells. Then the formazan crystals were dissolved though adding DMSO to each well. The absorbance was read at 570 nm with a microplate reader.

[2] = test system: leukemia HL-60 cells; test: In vitro cell inhibition assay (MTT method), HL-60; assay type: cell-based, human; conditions: 48 h
Procedure: as §1, §2

Row | SMILES | Proliferation inhibitory effect of the compounds on A549 cell (% of Control) ([1]; 0.01 μM) | Proliferation inhibitory effect of the compounds on A549 cell (% of Control) ([1]; 0.1 μM) | Proliferation inhibitory effect of the compounds on A549 cell (% of Control) ([1]; 1 μM) | Proliferation inhibitory effect of the compounds on A549 cell (% of Control) ([1]; 10 μM) | Proliferation inhibitory effect of the compounds on A549 cell (% of Control) ([1]; 100 μM) | Proliferation inhibitory effect of the compounds on HL-60 cells (% of Control) ([2]; concentration 0.01 μM) | Proliferation inhibitory effect of the compounds on HL-60 cells (% of Control) ([2]; concentration 0.1 μM) | Proliferation inhibitory effect of the compounds on HL-60 cells (% of Control) ([2]; concentration 1 μM) | Proliferation inhibitory effect of the compounds on HL-60 cells (% of Control) ([2]; concentration 10 μM) | Proliferation inhibitory effect of the compounds on HL-60 cells (% of Control) ([2]; concentration 100 μM)
1 | N#Cc1ccc(Nc2c(Cl)c(Cl)c(C#N)c(Cl)c2C#N)cc1 [Compound 6-23] | −0.8 % of Control | −1.8 % of Control | 2.5 % of Control | 93.7 % of Control | 93.8 % of Control | 2.3 % of Control | 10.8 % of Control | 23.1 % of Control | 93.2 % of Control | 90.6 % of Control
2 | Cc1c(Cl)c([N+](=O)[O-])cc([N+](=O)[O-])c1Nc1ccc(C(F)(F)F)cc1 [Compounds 22-24] |  |  |  |  |  | −22.4 % of Control | −16.7 % of Control | −9.3 % of Control | 82.4 % of Control | 94.3 % of Control
3 | N#Cc1c(Cl)c(Cl)c(Nc2c(Cl)cccc2Cl)c(C#N)c1Cl [Compound 6-41] | 3.8 % of Control | 0.7 % of Control | 13.1 % of Control | 84.0 % of Control | 92.0 % of Control | 6.5 % of Control | 3.9 % of Control | 7.8 % of Control | 86.5 % of Control | 87.9 % of Control
4 | COC(=O)c1cc(Cl)c(Nc2c([N+](=O)[O-])cc([N+](=O)[O-])c(Cl)c2C)c(Cl)c1 [Compounds 22-107] |  |  |  |  |  | 2.8 % of Control | −9.3 % of Control | −7.0 % of Control | 65.4 % of Control | 94.4 % of Control
5 | Cc1c(Cl)c([N+](=O)[O-])cc([N+](=O)[O-])c1Nc1c(Cl)cc(Cl)cc1Cl [Compounds 22-98] |  |  |  |  |  | −7.3 % of Control | 1.3 % of Control | 9.5 % of Control | 77.7 % of Control | 91.0 % of Control
6 | Cc1c(Cl)c([N+](=O)[O-])cc([N+](=O)[O-])c1Nc1c(Cl)cc(C#N)cc1Cl [Compounds 22-104] |  |  |  |  |  | 4.1 % of Control | −7.3 % of Control | −2.1 % of Control | 60.5 % of Control | 94.0 % of Control
7 | Cc1c(Cl)c([N+](=O)[O-])cc([N+](=O)[O-])c1Nc1ccc(C#N)cc1Cl [Compounds 22-61] |  |  |  |  |  | 5.2 % of Control | 7.8 % of Control | 11.0 % of Control | 85.7 % of Control | 89.8 % of Control
8 | Cc1cc([N+](=O)[O-])cc([N+](=O)[O-])c1Nc1c(Cl)cc(C(F)(F)F)cc1Cl [Compounds 30-101] |  |  |  |  |  | −6.4 % of Control | −14.2 % of Control | −0.3 % of Control | 57.3 % of Control | 80.7 % of Control
9 | N#Cc1ccccc1Nc1c(Cl)c(Cl)c(C#N)c(Cl)c1C#N [Compound 6-10] |  |  |  |  |  | 21.8 % of Control | 16.1 % of Control | 9.8 % of Control | 78.5 % of Control | 77.1 % of Control
10 | N#Cc1cc(Cl)cc(Cl)c1Nc1c(Cl)c(Cl)c(C#N)c(Cl)c1C#N [Compound 6-109] |  |  |  |  |  | 0.1 % of Control | 2.2 % of Control | 2.9 % of Control | 52.4 % of Control | 94.4 % of Control
11 | N#Cc1c(Cl)c(Cl)c(Nc2ccccc2Cl)c(C#N)c1Cl [Compound 6-3] |  |  |  |  |  | −7.1 % of Control | −6.3 % of Control | −2.1 % of Control | 72.2 % of Control | 94.5 % of Control
